Results published in PubChem BioAssay (NCI).
Several values for one entry are separate records, joined by “and”; a condition that tells them apart may be missing. Equal entries are not always repeated.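 48-hour exposure; five concentrations; linearly interpolated endpoints. Abbreviation: GI50, concentration required for 50% inhibition of growth. TGI marks complete inhibition of growth.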

Assays:
Assay in all cases: DTP human tumour cell line panel, 48 h
[1] = system: DLD-1 colon
[2] = system: MDA-N
[3] = system: MALME-3M melanoma
[4] = system: HT29 colon
[5] = system: 786-0 renal
[6] = system: UACC-257 melanoma
[7] = system: NCI-H522 lung
[8] = system: SN12C renal
[9] = system: OVCAR-4 ovarian
[10] = system: CCRF-CEM leukemia
[11] = system: BT-549 breast
[12] = system: HCC-2998 colon
[13] = system: PC-3 prostate
[14] = system: SNB-19 CNS
[15] = system: OVCAR-5 ovarian
[16] = system: MDA-MB-231 breast
[17] = system: SW-620 colon
[18] = system: KM20L2 colon
[19] = system: LOX IMVI melanoma
[20] = system: SK-OV-3 ovarian
[21] = system: RPMI-8226 leukemia
[22] = system: MDA-MB-435
[23] = system: NCI-H23 lung
[24] = system: IGROV1 ovarian
[25] = system: HOP-62 NSCLC
[26] = system: DMS 114 small cell lung
[27] = system: SF-295 CNS
[28] = system: SK-MEL-28 melanoma
[29] = system: T-47D breast
[30] = system: SK-MEL-2 melanoma
[31] = system: NCI-H226 lung
[32] = system: M19-MEL melanoma
[33] = system: COLO 205 colon
[34] = system: SNB-78 CNS
[35] = system: DU-145 prostate
[36] = system: NCI-H460 lung
[37] = system: OVCAR-8 ovarian
[38] = system: HCT-15 colon
[39] = system: M14 melanoma
[40] = system: TK-10 renal
[41] = system: SF-268 CNS
[42] = system: MOLT-4 leukemia
[43] = system: HOP-92 NSCLC
[44] = system: SK-MEL-5 melanoma
[45] = system: UO-31 renal
[46] = system: MCF7 breast
[47] = system: K-562 leukemia
[48] = system: HL-60(TB) leukemia
[49] = system: LXFL 529 NSCLC
[50] = system: OVCAR-3 ovarian
[51] = system: RXF 393 renal
[52] = system: CAKI-1 renal
[53] = system: U251 CNS
[54] = system: HS 578T breast
[55] = system: A549 NSCLC
[56] = system: EKVX NSCLC
[57] = system: ACHN renal
[58] = system: DMS 273 small cell lung
[59] = system: SR leukemia
[60] = system: A498 renal
[61] = system: KM12 colon
[62] = system: SNB-75 CNS
[63] = system: SF-539 CNS
[64] = system: UACC-62 melanoma
[65] = system: HCT-116 colon
[66] = system: NCI/ADR-RES ovarian

Which results are given for `CC[C@@]1(O)C(=O)OCc2c1cc1n(c2=O)Cc2cc3cc(Cl)ccc3nc2-1`?
GI50 [1]: 108 nM and 346 nM; TGI [1]: > 100000 nM; GI50 [2]: 28.6 nM; TGI [2]: 374 nM; GI50 [3]: 30.5 nM and 44.4 nM; TGI [3]: 818 nM and 564 nM; GI50 [4]: 26.9 nM and 18.7 nM; TGI [4]: 203 nM; GI50 [5]: 5.19 nM; TGI [5]: 327 nM; GI50 [6]: 38.9 nM and 85.7 nM; TGI [6]: 953 nM and 1110 nM; GI50 [7]: 9.46 nM and 22 nM; TGI [7]: 298 nM and 843 nM; GI50 [8]: 2.07 nM; TGI [8]: 120 nM and 243 nM; GI50 [9]: 125 nM and 249 nM; TGI [10]: > 100000 nM; GI50 [11]: 56.2 nM; TGI [11]: 2440 nM; GI50 [12]: 27.7 nM and 36.4 nM; TGI [12]: 202 nM and 320 nM; GI50 [13]: 42.7 nM; GI50 [14]: 3.45 nM; TGI [14]: 866 nM and 3820 nM; GI50 [15]: 63.5 nM and 70.6 nM; TGI [15]: 363 nM and 318 nM; GI50 [16]: 94 nM; TGI [16]: 4690 nM; TGI [17]: 2370 nM and 5230 nM; GI50 [18]: 9.97 nM and 27.1 nM; TGI [18]: 144 nM and 461 nM; GI50 [19]: 1.91 nM; GI50 [20]: 15.2 nM; TGI [20]: 39900 nM; GI50 [21]: 13.2 nM and 33.4 nM; GI50 [22]: 89 nM; TGI [22]: 357 nM; GI50 [23]: 2.26 nM; TGI [23]: 5.45 nM and 19.6 nM; GI50 [24]: 32.7 nM and 162 nM; TGI [24]: 1850 nM and 2340 nM; GI50 [25]: < 1 nM; GI50 [26]: < 1 nM; GI50 [27]: < 1 nM; TGI [27]: 89.3 nM; GI50 [28]: 54.2 nM and 35.5 nM; TGI [28]: 4520 nM and 8650 nM; GI50 [29]: 3.35 nM; TGI [29]: 167 nM; GI50 [30]: 169 nM and 187 nM; TGI [30]: 677 nM and 691 nM; GI50 [31]: 3.45 nM; TGI [31]: 108 nM and 117 nM; GI50 [32]: 16.7 nM and 19.5 nM; TGI [32]: 224 nM and 190 nM; GI50 [33]: 20 nM and 45.8 nM; TGI [33]: 1410 nM and 1470 nM; GI50 [34]: 71.1 nM and 58.1 nM; GI50 [35]: 4.91 nM; GI50 [36]: < 1 nM; TGI [36]: 11.8 nM; GI50 [37]: 1.17 nM and 11.2 nM; TGI [37]: 109 nM and 203 nM; GI50 [38]: 55.9 nM and 106 nM; TGI [38]: 10500 nM; GI50 [39]: 4.67 nM; TGI [39]: 85.3 nM and 47.6 nM; GI50 [40]: 2580 nM and 1870 nM; TGI [40]: > 100000 nM; GI50 [41]: 4.03 nM; GI50 [42]: 1.19 nM; GI50 [43]: 25.6 nM and 41.5 nM; TGI [43]: 1320 nM and 709 nM; GI50 [44]: 8.2 nM and 18.1 nM; TGI [44]: 50.1 nM and 63.6 nM; GI50 [45]: 2.66 nM; TGI [45]: 81.6 nM; GI50 [46]: 3.64 nM; GI50 [47]: 9.16 nM and 87.3 nM; TGI [47]: > 100000 nM; GI50 [48]: 1.56 nM and 13.1 nM; GI50 [49]: 108 nM; TGI [49]: 2220 nM; GI50 [50]: 45.6 nM and 137 nM; TGI [50]: 274 nM and 452 nM; GI50 [51]: 10.6 nM; TGI [51]: 137 nM; TGI [52]: 1070 nM and 1190 nM; GI50 [53]: 1.97 nM; TGI [53]: 23.4 nM; GI50 [54]: 445 nM; GI50 [55]: 6.56 nM; TGI [55]: 1420 nM and 1210 nM; GI50 [56]: 282 nM and 302 nM; TGI [56]: 5730 nM and 4900 nM; GI50 [57]: 2.28 nM; TGI [57]: 10.7 nM; GI50 [58]: < 1 nM; TGI [58]: 21.1 nM and 140 nM; GI50 [59]: 2.32 nM and 14.3 nM; GI50 [60]: 8.78 nM and 51.7 nM; TGI [60]: 132 nM and 221 nM; GI50 [61]: 48.5 nM and 127 nM; TGI [61]: 195 nM and 446 nM; GI50 [62]: 2.53 nM; TGI [62]: 53 nM and 41.4 nM; GI50 [63]: 4.67 nM; GI50 [64]: 1.83 nM

What does the source list for `CC(C)C[S+]1C2=C([O-])CC(C)(C)CC2=Nc2ccccc21` (stereo not drawn)?
TGI [2]: > 100000 nM; TGI [3]: > 100000 nM; TGI [4]: > 100000 nM; TGI [5]: > 100000 nM; TGI [6]: > 100000 nM; TGI [7]: > 100000 nM; TGI [8]: > 100000 nM; TGI [9]: > 100000 nM; TGI [10]: > 100000 nM; TGI [11]: > 100000 nM; TGI [12]: > 100000 nM; TGI [13]: > 100000 nM; TGI [14]: > 100000 nM; TGI [15]: > 100000 nM; TGI [16]: > 100000 nM; TGI [17]: > 100000 nM; TGI [65]: > 100000 nM; TGI [19]: > 100000 nM; TGI [20]: > 100000 nM; TGI [21]: > 100000 nM; TGI [22]: > 100000 nM; TGI [23]: > 100000 nM; TGI [24]: > 100000 nM; TGI [25]: > 100000 nM; TGI [27]: > 100000 nM; TGI [28]: > 100000 nM; TGI [29]: > 100000 nM; TGI [30]: > 100000 nM; TGI [31]: > 100000 nM; TGI [33]: > 100000 nM; TGI [35]: > 100000 nM; TGI [36]: > 100000 nM; TGI [37]: > 100000 nM; TGI [66]: > 100000 nM; TGI [38]: > 100000 nM; TGI [39]: > 100000 nM; TGI [40]: > 100000 nM; TGI [41]: > 100000 nM; TGI [42]: > 100000 nM; TGI [43]: > 100000 nM; TGI [44]: > 100000 nM; TGI [45]: > 100000 nM; TGI [46]: > 100000 nM; TGI [47]: > 100000 nM; TGI [48]: > 100000 nM; TGI [50]: > 100000 nM; TGI [51]: > 100000 nM; TGI [52]: > 100000 nM; TGI [53]: > 100000 nM; TGI [54]: > 100000 nM; TGI [55]: > 100000 nM; TGI [56]: > 100000 nM; TGI [57]: > 100000 nM; TGI [59]: 75800 nM; TGI [60]: > 100000 nM; TGI [61]: > 100000 nM; TGI [62]: > 100000 nM; TGI [63]: > 100000 nM; TGI [64]: > 100000 nM
